# Legend:
# Experiment in all cases: Competitive cysteine profiling of cell lysate with desthiobiotin iodoacetamide probe (96-well sample prep)
# Assay type in all cases: binding
# [1] = molecular target: T1, cysteine residue illustrated in Table 1A or Table 2A (Homo sapiens, UniProt O95628); conditions: UniProt O95628; 100 uM
# T1 construct: endogenous in cells
# T1 sequence (O95628 1-575): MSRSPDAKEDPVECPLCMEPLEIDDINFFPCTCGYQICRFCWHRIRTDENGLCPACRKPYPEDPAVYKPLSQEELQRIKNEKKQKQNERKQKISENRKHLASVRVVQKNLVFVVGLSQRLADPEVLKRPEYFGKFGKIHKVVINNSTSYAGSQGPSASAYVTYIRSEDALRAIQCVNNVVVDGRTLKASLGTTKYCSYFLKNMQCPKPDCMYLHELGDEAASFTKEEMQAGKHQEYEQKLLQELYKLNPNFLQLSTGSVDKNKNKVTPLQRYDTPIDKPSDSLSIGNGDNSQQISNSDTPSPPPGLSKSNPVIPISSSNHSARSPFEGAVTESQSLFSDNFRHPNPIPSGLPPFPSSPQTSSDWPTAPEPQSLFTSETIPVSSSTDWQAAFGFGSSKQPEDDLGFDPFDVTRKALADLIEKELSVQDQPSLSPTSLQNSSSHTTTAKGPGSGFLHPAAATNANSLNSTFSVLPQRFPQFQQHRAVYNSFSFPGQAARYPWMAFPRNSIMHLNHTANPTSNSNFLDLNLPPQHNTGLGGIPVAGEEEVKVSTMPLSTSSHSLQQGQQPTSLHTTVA
# Description: (§1) In some embodiments, the solution sample (e.g., cell sample, cell lysate sample, or comprising isolated proteins) is incubated with a compound of Formula (I) for analysis of protein-probe interactions. In some instances, the solution sample (e.g., cell sample, cell lysate sample, or comprising isolated proteins) is further incubated in the presence of an additional compound probe prior to addition of the compound of Formula (I). […] In such instances, the solution sample is incubated with a probe and a ligand for competitive protein profiling analysis.
# (§2) The following 96-well sample prep protocol was used for sample preparation.
# (§3) Cells were resuspended in cold PBS on ice and sonicated with a probe sonicator to achieve lysis. 200 μL of lysate containing 5 mg/ml proteome was treated with 2 μL of 100× compound stock in a 2-mL deep-well plate. The treated lysate was subsequently incubate at 25° C. for 1 hr with shaking at 600 rpm. The treated lysate was further incubated with 2 μL of 10 mM desthiobiotin iodoacetamide probe at 25° C. for 1 hr with shaking at 600 rpm. Next, the lysate was further treat with 20 μL of solution of PBS containing 11 mM MgSO4 and 2.5% Turbonuclease stock and incubated at 25° C. for 20 minutes with shaking at 600 rpm. 1.7 mL ice-cold acetone was added to each well and incubated at −20° C. for 2 hr, followed by max speed (4200 rpm) spin for 45 min. Acetone was then decanted and the plates were blotted to remove acetone. The plates were then dried in open air for 20 minutes. After drying, the plates were then covered with foil seal and stored at −80° C. overnight.
# (§4) The next day, samples were re-suspended in 90 μL of solution of 9M urea, 50 mM ammonium bicarbonate and 10 mM DTT by incubating at 65C for 20 min with shaking at 1500 rpm. Next, samples were cooled to 37° C. and then 10 μL of 500 mM iodoacetamide solution (92.48 mg/ml) was added. The samples were then incubated at 37° C. for 30 min with shaking at 600 rpm.
# (§5) ZEBA desalting plates were equilibrated 4 times using 250 μL of 2M urea, 50 mM ammonium bicarbonate solution followed by centrifugation at 1500 rpm for 2 minutes. After equilibration was complete, samples were applied to ZEBA desalting plate and spin at 1500 rpm for 2 min on top of 1 mL 96-well deep-well collection plate to buffer exchange samples. 4 μL of solution containing 25 mM CaCl2 and 0.25 mg/mL trypsin was added to the plate and the plate was then incubated at 37° C. for 2 hrs with shaking at 600 rpm. 300 μL of solution containing 5% high-capacity streptavidin agarose slurry in 25 mM Tris-HCl pH 7.5, 150 mM NaCl, and 0.1% NP-40 then added. The plate was incubated at 25° C. for 2 hrs with shaking at 600 rpm. Samples were transferred to 25 μm filter plate and spin at 1000 rpm for 2 min. Samples were then washed 3 times with 0.75 mL of wash buffer (25 mM Tris-HCl pH 7.5, 150 mM NaCl, and 0.1% NP-40) followed by washing 3 times with 0.75 mL PBS, and then 4 times with 0.75 mL water. After the washing step, samples were eluted into polypropylene 96-well plate by addition of 250 µL of 50% MeCN/water, 0.1% formic acid and allowed to gravity drip for 10 min, followed by centrifugation at 1000 rpm for 2 min. Speedvac was used to dry the plates at about 45° C. for […]. Then the plates were covered with foil seal and stored at −20° C.
# (§6) Samples were resuspended by addition of 20 μl of 12.5% ACN, 0.1% formic acid solution, covered with foil seal, and incubated at 42° C. for 10 minutes with shaking at 600 rpm. Then add 30 μL of 0.1% formic acid solution was added and the plate was covered and incubated at 42° C. for 10 minutes with shaking at 600 rpm. Seal plate was then sealed with a 96-well silicon mat for analysis.
# [2] = molecular target: T2, cysteine residue illustrated in Table 1A or Table 2A (Homo sapiens, UniProt P0C7V8); conditions: UniProt P0C7V8; 500 uM
# T2 construct: Cells were resuspended in cold PBS on ice and sonicated with a probe sonicator to achieve lysis; endogenous in cells
# Description: as §1, §2, §3, §4, §5, §6
# [3] = molecular target: T3, cysteine residue illustrated in Table 1A or Table 2A (Homo sapiens, UniProt P40337); conditions: UniProt P40337
# T3 construct: Cells were resuspended in cold PBS on ice and sonicated with a probe sonicator to achieve lysis; endogenous in cells
# Description: as §1, §2, §3, §4, §5, §6
# [4] = molecular target: T4, cysteine residue illustrated in Table 1A or Table 2A (Homo sapiens, UniProt Q86X83); conditions: UniProt Q86X83
# T4 construct: Cells were resuspended in cold PBS on ice and sonicated with a probe sonicator to achieve lysis; endogenous in cells
# Description: as §1, §2, §3, §4, §5, §6
# [5] = molecular target: T5, cysteine residue illustrated in Table 1A or Table 2A (Homo sapiens, UniProt Q9GZQ3); conditions: UniProt Q9GZQ3; 500 uM
# T5 construct: Cells were resuspended in cold PBS on ice and sonicated with a probe sonicator to achieve lysis; endogenous in cells
# Description: as §1, §2, §3, §4, §5, §6
smiles,measurement,setting,value
COc1ccc2c(c1)CCCN2C(=O)CCl [KB02],KB02_100 uM_percent_inhibition,[1],6%
same,KB02_500 uM_percent_inhibition,[2],55%
same,KB02_100 uM_percent_inhibition,[3]; KB02 100 uM,12%
same,KB02_100 uM_percent_inhibition,[4]; 100 uM,31%
same,KB02_500 uM_percent_inhibition,[4]; 500 uM,83%
same,KB02_500 uM_percent_inhibition,[5],11%
C=CC(=O)N(c1ccccc1)c1ccc(Br)cc1 [KB05],KB05_100 uM_percent_inhibition,[1],94%
same,KB05_500 uM_percent_inhibition,[2],63%
same,KB05_100 uM_percent_inhibition,[3]; KB05 100 uM,15%
same,KB05_500 uM_percent_inhibition,[3]; KB05 500 uM,32%
same,KB05_100 uM_percent_inhibition,[4]; 100 uM,38%
same,KB05_500 uM_percent_inhibition,[4]; 500 uM,78%
same,KB05_500 uM_percent_inhibition,[5],56%
O=C(CCl)Nc1cc(C(F)(F)F)cc(C(F)(F)F)c1 [KBO3],KB03_100 uM_percent_inhibition,[1],13%
same,KB03_500 uM_percent_inhibition,[2],41%
same,KB03_100 uM_percent_inhibition,[3]; KB03 100 uM,19%
same,KB03_100 uM_percent_inhibition,[4]; 100 uM,35%
same,KB03_500 uM_percent_inhibition,[4]; 500 uM,72%
same,KB03_500 uM_percent_inhibition,[5],24%
